From US20250302720A1, “PEPTIDE-BASED HAIR TREATMENT” (Sederma, priority 2020, published 2025)
Residues, ends and D or L forms follow the SMILES beside them.

Tests used:
[1] = tested on: catalase; assay: Catalase activity of the NHM (resorufin reagent); assay type: cell-based, human; settings: 24 h, vs control
Protocol: NHM almost at confluence are brought into contact with the peptide according to the invention for 24 hours. At the end of this contact, the cells are crushed. The catalase activity extracted from these cells is measured using resorufin reagent. The latter combines with the H2O2 remaining in the reaction well after the action of cellular catalase. A protein assay using bicinchoninic acid (BCA) method is used to estimate the cell quantity to homogenize the obtained data.

[2] = tested on: reduced glutathione (GSH); assay: Reduced glutathione of the NHM (fluorescent probe); assay type: cell-based, human; settings: 24 h, vs control
Protocol: NHM almost at confluence are brought into contact with the peptide according to the invention for 24 hours. After this contact, the cells are broken in an extraction buffer that preserves glutathione. The amount of GSH is determined by a specific fluorescent probe.

[3] = tested on: melanocyte dendrites (NHM); assay: Length of melanocyte dendrites (antibody labelling, image analysis); assay type: cell-based, human; settings: 48 hours, vs control, n = 3
Protocol: The cells are brought into contact with the peptide according to the invention for 48 hours. Then the melanocyte layers, once rinsed, are labeled using an antibody. The area occupied by the dendrites are obtain by image analysis on the photos taken, a parameter converted into the relative dendrite length/100 cells. At the same time, the cell nuclei are counterstained using Hoescht 33258 fluorescent dye to estimate the cell number and to harmonize the data.

[4] = tested on: Normal human keratinocytes (NHK); assay: Microbead (melanosome mimic) phagocytosis by keratinocytes; assay type: cell-based; settings: 24 hours then microbeads 3 hours, vs control
Protocol: Normal human keratinocytes (NHK) are seeded and cultured until a mat of confluent cells is obtained. The cells are brought into contact with the peptide according to the invention for 24 hours and a solution of fluorescent microbeads mimicking the melanosomes of the melanocyte is added for 3 hours. The beads are phagocytosed (ingested) by the keratinocytes and quantified, after rinsing, by image analysis. In parallel, the cell nuclei are counterstained using the Hoescht33258 fluorescent dye to estimate the cell quantity and to harmonize the data.

[5] = tested on: TYRP1; assay: Expression of melanogenesis genes in NHM (qRTPCR): TYRP1; assay type: cell-based, human; settings: 72 h, vs control, n = 4
Protocol: (§1) NHM are cultivated and brought into contact with the peptide according to the invention or its solvent. At the end of 72 h of contact, the melanocytes are crushed, and the mRNAs are recovered, converted into cDNA which are analyzed by qRTPCR, to estimate the changes in the expression level of the mRNAs. The expression of the following genes has been studied: MITF, TYRP1 and CREB.

[6] = tested on: CREB; assay: Expression of melanogenesis genes in NHM (qRTPCR): CREB; assay type: cell-based, human; settings: 72 h, vs control, n = 4
Protocol: as §1

[7] = tested on: hair follicles (bulb) from a scalp plasty; assay: Melanin production in the bulb of isolated hair follicles kept in survival for 8 days; assay type: cell-based, human; settings: 10 ppm
Protocol: (§2) Follicles comprising their bulb with little pigment and isolated from a scalp plasty (resulting from cosmetic surgery— donor, dark blond; person) are placed individually in the wells of a culture plate containing the culture medium and maintained for survival (37° C.; 5% CO2).
(§3) Twelve follicles are reserved for T0 to serve as a reference for visual estimation and quantification of pigmentation but also for subsequent labeling of MC1R and MITF by immunohistology (six follicles for each marker).
(§4) Twelve follicles are placed in contact with the peptide according to the invention at 10 ppm in its solvent and twelve others in contact with the solvent alone for 8 days (0.1% DMSO in culture medium). At 8 days, all the follicles are stopped and fixed, then sectioned (7 μm) and marked with alunated carmine and photographed under a microscope. Sections of 6 of them (for each group) are used for visual and quantitative assessment by image analysis of their pigmentation (with specific filter to measure melanin). Sections of the other 6 are used for MC1R and MITF scoring, which is to be assessed by visual estimation.

[8] = tested on: MITF; assay: MITF labelling by immunohistology in isolated hair follicles; assay type: cell-based, human; settings: 10 ppm, 8 days; decreases in the control case
Protocol: as §2, §3, §4

## CCCCCCCCCCCCCCCC(=O)N1CCC[C@H]1C(=O)N1CCC[C@H]1C(=O)O [Pal-PP-OH, palmitoyl-prolyl-proline] (HELM PEPTIDE1{[CCCCCCCCCCCCCCCC(=O)[*:2]].P.P}$$$$V2.0)
[1]; 10 ppm, n = 3
  Catalase activity, Variation (%): +31%; p < 0.01
[1]; 12.5 ppm, n = 3
  Catalase activity, Variation (%): +37%; p < 0.01
[1]; 12.5 ppm, n = 3, listed as peptide according to the invention
  Catalase activity, Variation (%): +37%
[2]; 10 ppm, n = 6
  Reduced glutathione concentration, Variation (%): +28%; p < 0.05
[2]; 12.5 ppm, n = 6
  Reduced glutathione concentration, Variation (%): +38%; p < 0.01
[2]; 12.5 ppm, n = 6, listed as peptide of the invention
  Reduced glutathione concentration, Variation (%): +38%
[3]; 5 ppm
  Lenght of the dendrites, Variation (%): +20%; p < 0.01
[3]; 10 ppm
  Lenght of the dendrites, Variation (%): +33%; p < 0.01
[3]; 15 ppm
  Lenght of the dendrites, Variation (%): +57%; p < 0.01
[4]; 5 ppm, n = 3
  Number of microbeads per image analysis, Variation (%): +50%; p < 0.05
[4]; 10 ppm, n = 3
  Number of microbeads per image analysis, Variation (%): +283%; p < 0.01
[4]; 10 ppm, n = 3, listed as peptide according to the invention
  Number of microbeads per image analysis, Variation (%): +283%
[5]; 10 ppm
  variation in the expression of TYRP1 gene: +42%; p < 0.01
[5]; 12.5 ppm
  variation in the expression of TYRP1 gene: +54%; p < 0.01
[6]; 10 ppm
  variation in the expression of CREB gene: +46%; p < 0.01
[6]; 12.5 ppm
  variation in the expression of CREB gene: +56%; p < 0.01
[7]; 6 follicles
  dark pixels corresponding to the deposition of melanin, vs control follicles: 11.6 times
[7]; follicle bulb, vs control, n = 6 follicles
  Melanin, Quantification by image analysis; % area occupied by black pixels: ×11.6; p < 0.01
[8]
  MITF in the bulb, visual estimation compared to T0: increased
